Data: the supplement of paper PMC10307832

Tests used:
Test in all cases: relative viability (nuclei count vs DMSO), 5 days (fraction); higher = more cells survive
Carfilzomib + Dasatinib = compound: CC(C)C[C@H](NC(=O)[C@H](CCc1ccccc1)NC(=O)CN1CCOCC1)C(=O)N[C@@H](Cc1ccccc1)C(=O)N[C@@H](CC(C)C)C(=O)[C@@]1(C)CO1 [Carfilzomib] + Cc1nc(Nc2ncc(C(=O)Nc3c(C)cccc3Cl)s2)cc(N2CCN(CCO)CC2)n1 [Dasatinib] (partner 0.075 µM)
How it was run: (§1)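 Relative viability equals treated-well nuclei counts divided by vehicle-well nuclei counts. Counts came from 4× images of lung cancer cell lines grown in 1536-well plates for 5 days after pin-tool dosing on the day after seeding. Dosing used one drug alone or a fixed anchor-drug dose plus five library-drug doses (not always all listed) in √10 steps, and values are medians of duplicate plates.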

Carfilzomib + Vorinostat = compound: CC(C)C[C@H](NC(=O)[C@H](CCc1ccccc1)NC(=O)CN1CCOCC1)C(=O)N[C@@H](Cc1ccccc1)C(=O)N[C@@H](CC(C)C)C(=O)[C@@]1(C)CO1 [Carfilzomib] + O=C(CCCCCCC(=O)Nc1ccccc1)NO [Vorinostat] (partner 1 µM)
How it was run: as §1

Olaparib + AZD7762 = compound: O=C(c1cc(Cc2n[nH]c(=O)c3ccccc23)ccc1F)N1CCN(C(=O)C2CC2)CC1 [Olaparib] + NC(=O)Nc1cc(-c2cccc(F)c2)sc1C(=O)N[C@H]1CCCNC1 [AZD7762] (partner 0.2 µM)
How it was run: as §1

Olaparib + Vorinostat = compound: O=C(c1cc(Cc2n[nH]c(=O)c3ccccc23)ccc1F)N1CCN(C(=O)C2CC2)CC1 [Olaparib] + O=C(CCCCCCC(=O)Nc1ccccc1)NO [Vorinostat] (partner 1 µM)
How it was run: as §1

Row | Cell Line | relative viability (Carfilzomib + Dasatinib; first compound 0.003162 µM) | relative viability (Carfilzomib + Dasatinib; first compound 0.01 µM) | relative viability (Carfilzomib + Dasatinib; first compound 0.03162 µM) | relative viability (Carfilzomib + Dasatinib; first compound 0.1 µM) | relative viability (Carfilzomib + Vorinostat; first compound 0.001 µM) | relative viability (Carfilzomib + Vorinostat; first compound 0.003162 µM) | relative viability (Carfilzomib + Vorinostat; first compound 0.01 µM) | relative viability (Carfilzomib + Vorinostat; first compound 0.03162 µM) | relative viability (Carfilzomib + Vorinostat; first compound 0.1 µM) | relative viability (Olaparib + AZD7762; first compound 0.08 µM) | relative viability (Olaparib + AZD7762; first compound 0.253 µM) | relative viability (Olaparib + AZD7762; first compound 2.53 µM) | relative viability (Olaparib + AZD7762; first compound 8 µM) | relative viability (Olaparib + Vorinostat; first compound 0.08 µM) | relative viability (Olaparib + Vorinostat; first compound 0.253 µM) | relative viability (Olaparib + Vorinostat; first compound 2.53 µM) | relative viability (Olaparib + Vorinostat; first compound 8 µM) | relative viability (Carfilzomib + Dasatinib; first compound 0.001 µM)
1 | NCI-H1975 | 0.33 | 0.144 | 0.0922 | 0.107 | 0.706 | 0.611 | 0.261 | 0.129 | 0.135 | 0.793 | 0.727 | 0.705 | 0.765 | 0.739 | 0.649 | 0.717 | 0.624 | 
2 | NCI-H1993 | 0.597 | 0.581 | 0.467 | 0.453 | 0.631 | 0.804 | 0.876 | 0.366 | 0.288 | 0.748 | 0.736 | 1.04 | 0.824 | 0.962 | 0.869 | 0.82 | 0.88 | 0.604
3 | NCI-H2085 | 0.256 | 0.255 | 0.249 | 0.192 | 0.71 | 0.879 | 0.497 | 0.222 | 0.3 | 1.1 | 0.875 | 0.962 | 0.881 | 0.844 | 0.703 | 0.749 | 0.616 | 0.239
4 | NCI-H2087 | 0.994 | 0.465 | 0.0405 | 0.0695 | 0.474 | 0.601 | 0.225 | 0.0585 | 0.0243 | 1.43 | 1.15 | 1.3 | 0.959 | 0.834 | 0.761 | 0.658 | 0.546 | 0.781
5 | NCI-H2126 | 0.641 | 0.705 | 0.655 | 0.268 | 0.748 | 0.868 | 0.904 | 0.716 | 0.222 | 1.08 | 0.942 | 0.959 | 0.948 | 0.803 | 0.773 | 0.819 | 0.777 | 0.655
6 | NCI-H2170 | 0.519 | 0.832 | 0.352 | 0.237 | 0.751 | 0.86 | 0.916 | 0.404 | 0.152 | 0.718 | 0.857 | 0.627 | 0.398 | 0.811 | 0.754 | 0.748 | 0.748 | 0.56
7 | NCI-H2342 | 0.32 | 0.355 | 0.374 | 0.321 | 0.731 | 0.675 | 0.876 | 0.733 | 0.421 | 0.544 | 0.4 | 0.439 | 0.474 | 0.771 | 0.699 | 0.66 | 0.653 | 0.364
8 | NCI-H2347 |  | 0.338 | 0.197 | 0.173 | 0.712 | 0.53 | 0.432 | 0.352 | 0.303 | 0.905 | 0.749 | 0.665 | 0.549 | 0.577 | 0.568 | 0.588 | 0.398 | 0.335
9 | NCI-H2405 | 0.218 | 0.203 | 0.247 | 0.188 | 0.998 | 1.17 | 1.06 | 0.376 | 0.148 | 0.86 | 0.741 | 0.632 | 0.636 | 1.28 | 0.957 | 0.997 | 0.926 | 
